In paper PMC8588511, “Chromane Derivatives from Underground Parts of Iris tenuifolia and Their In Vitro Antimicrobial, Cytotoxicity and Antiproliferative Evaluation” (Molecules, 2021):
Where two headings read alike, the source gives them in different places.

Tests used:
[1] = tested on: Bacillus subtilis (6633 B1); assay: agar diffusion antimicrobial assay; format: cell-based; details: for zone of inhibition at 1000 µg/mL: Bacillus subtilis (6633 B1), 50 μL of 1 mg/mL in DMSO, 18 h, ciprofloxacin 5 µg/mL, read-out: Inhibition Zone of Test Microorganism
Description: (§1) Compounds 1, 2, 3, 5, 9, and 10 were tested for their antimicrobial activities against S. aureus (JMRC:STI 10760), B. subtilis (JMRC:STI 10880), S. aureus MRSA (JMRC: ST 33793) E. faecalis VRE (JMRC: ST 33700), E. coli (JMRC:ST 33699), P. aeruginosa (JMRC:ST 33771), P. aeruginosa (JMRC:ST 33772), M. vaccae (JMRC:STI 10670), S. salmonicolor (JMRC:ST 35974), C. albicans (JMRC:STI 25000), and P. notatum (JMRC:STI 50164)) using agar diffusion assay as previously published. Strains were obtained from the Jena Microbial Resource Collection (JMRC). The bacteria were cultivated on standard I nutrient agar in Petri dishes at 37 °C. Antifungal bioassays were conducted at 30 °C using the basidiomycetous yeast S. salmonicolor and the filamentous ascomycete P. notatum, which were cultivated on malt agar, and the ascomycetous yeast C. albicans, which was cultivated on yeast morphology agar. After inoculation of the test organisms, a disc (9 mm in diameter) was removed from the center of the Petri dish and 50 μL of the test solution (1 mg/mL in DMSO) was added to the cavity. After 18 h of incubation, the inhibiting areola were measured and documented as diameters in mm. Ciprofloxacin (5 µg/mL in deionized water) and amphotericin B (10 µg/mL in DMSO/MeOH 1:1) were used as reference substances against bacterial and fungal strains, respectively.

[2] = tested on: Enterococcus faecalis (VRE 1528 R10); assay: agar diffusion antimicrobial assay; format: cell-based; details: for zone of inhibition at 1000 µg/mL: Enterococcus faecalis (VRE 1528 R10), 50 μL of 1 mg/mL in DMSO, 18 h, ciprofloxacin 5 µg/mL, read-out: Inhibition Zone of Test Microorganism; for antibacterial activity in words: Enterococcus faecalis VRE, agar diffusion
Description: as §1

[3] = tested on: Mycobacterium vaccae (10670 M4); assay: agar diffusion antimicrobial assay; format: cell-based; details: for antibacterial activity in words: Mycobacterium vaccae, agar diffusion, compared to ciprofloxacin; for zone of inhibition at 1000 µg/mL: Mycolicibacterium vaccae, Mycobacterium vaccae (10670 M4), 50 μL of 1 mg/mL in DMSO, 18 h, ciprofloxacin 5 µg/mL, read-out: Inhibition Zone of Test Microorganism
Description: as §1

[4] = tested on: Pseudomonas aeruginosa (K799/61 B9); assay: agar diffusion antimicrobial assay; format: cell-based; details: Pseudomonas aeruginosa (K799/61 B9); 50 μL of 1 mg/mL in DMSO, 18 h; ciprofloxacin 5 µg/mL
Description: as §1

[5] = tested on: Pseudomonas aeruginosa (SG137 B7); assay: agar diffusion antimicrobial assay; format: cell-based; details: 50 μL of 1 mg/mL in DMSO, 18 h, ciprofloxacin 5 µg/mL
Description: as §1

[6] = tested on: Staphylococcus aureus (MRSA 134/94 R9); assay: agar diffusion antimicrobial assay; format: cell-based; details: 50 μL of 1 mg/mL in DMSO, 18 h, ciprofloxacin 5 µg/mL
Description: as §1

[7] = tested on: human acute monocytic leukemia cells (THP-1); assay: antiproliferation assay (CellTiter-Blue); format: cell-based
Description: (§2) In this assay, K-562 (DSM ACC 10), THP-1 (DSM ACC 16), and HeLa (DSM ACC 57) were maintained in Roswell Park Memorial Institute (RPMI) 1640 medium (Cambrex 12-167F) while HUVEC (ATCC CRL-1730) and A549 (DSM ACC 107) were cultured in Dulbecco’s Modified Eagle’s Medium (DMEM) (Cambrex 12-614F). Cells that were grown in the appropriate cell culture medium were supplemented with 10 mL/L ultraglutamine 1 (Cambrex 17-605E/U1), 550 µL/L (50 mg/mL) gentamicin sulfate (Cambrex 17-518Z), and 10% heat inactivated fetal bovine serum (GIBCO Life Technologies 10270-106) at 37 °C. The tested compounds were dissolved in DMSO, and the cells were seeded in 96-well plates at a density of 1 × 10^4 cells/well. As for the antiproliferative effect of the compounds, the cells were incubated for 72 h, and GI50 values were evaluated to be defined as the concentration causing 50% inhibition of proliferation compared to the untreated control. With regard to the cytotoxic assay, HeLa cells were pre-incubated for 48 h without the test compounds. Then, the cells were exposed with different concentrations of compounds and incubated for 72 h. After that, the adherent HeLa cells were fixed by glutaraldehyde and stained with a 0.05% solutions of methylene blue (SERVA 29198) for 15 min. CC50 was evaluated to be defined as the concentration required for the death of 50% of the cell monolayer as compared to control groups. Under our experimental conditions, the optical density measured from the CellTiter-Blue reagent and methylene blue assay is proportional to the number of viable cells. In this experiment, absorbances were measured at 570 nm against the reference wavelength of 600 nm (CellTiter-Blue assay) and at 660 nm (methylene blue assay). Doxorubicin (Adriamycin®) and imatinib (Gleevec®) were used as positive controls for HUVEC, K-562, and HeLa cells. A repeat determination has been conducted in all experiments, and four replicates were assayed. The calculations of the different values of GI50 and CC50 were performed with software Magellan version 3.00 (Tecan Trading AG, Maennedorf, Switzerland).

[8] = tested on: human chronic myeloid leukemia cells (K-562); assay: antiproliferation assay (CellTiter-Blue); format: cell-based; details: for GI50: Homo sapiens, read-out: Antiproliferative Effect, GI50 (CI 95%)
Description: as §2

[9] = tested on: human lung carcinoma cells (A549); assay: antiproliferation assay (CellTiter-Blue); format: cell-based
Description: as §2

[10] = tested on: human umbilical vein endothelial cells (HUVEC); assay: antiproliferation assay (CellTiter-Blue); format: cell-based; details: Homo sapiens, 72 h, read-out: Antiproliferative Effect, GI50 (CI 95%)
Description: as §2

[11] = cytotoxicity assay (methylene blue); format: cell-based, human; details: human, HeLa, 72 h, read-out: Cytotoxicity CC50 (CI 95%)
Description: as §2

[12] = tested on: three fungi and eight bacterial strains; assay: agar diffusion assay, whole panel; format: cell-based; details: eleven microorganisms
Description: as §1

[13] = tested on: HUVEC, K-562, THP-1, A549, and HeLa cell lines; assay: antiproliferative and cytotoxicity assays, all applied cell lines; format: cell-based
Description: The tested compounds were dissolved in DMSO, and the cells were seeded in 96-well plates at a density of 1 × 10^4 cells/well. […] With regard to the cytotoxic assay, HeLa cells were pre-incubated for 48 h without the test compounds. Then, the cells were exposed with different concentrations of compounds and incubated for 72 h. […] Under our experimental conditions, the optical density measured from the CellTiter-Blue reagent and methylene blue assay is proportional to the number of viable cells. In this experiment, absorbances were measured at 570 nm against the reference wavelength of 600 nm (CellTiter-Blue assay) and at 660 nm (methylene blue assay). […] A repeat determination has been conducted in all experiments, and four replicates were assayed. The calculations of the different values of GI50 and CC50 were performed with software Magellan version 3.00 (Tecan Trading AG, Maennedorf, Switzerland).

[14] = Homo sapiens, THP-1, 72 h; read-out: Antiproliferative Effect, GI50 (CI 95%)
[15] = Homo sapiens, A549, 72 h; read-out: Antiproliferative Effect, GI50 (CI 95%)

O=C1C[C@@H](c2cccc(O)c2O)Oc2cc(O)cc(O)c21 [Compound 3, (2S)-5,7,2′,3′-Tetrahydroxyflavanone]
zone of inhibition at 1000 µg/mL [1]: 12 mm
zone of inhibition at 1000 µg/mL [2]: 17 mm
antibacterial activity in words [2]: highest antibacterial activity
antibacterial activity in words [3]: highest antibacterial activity
zone of inhibition at 1000 µg/mL [3]: 23 mm
Inhibition Zone of Test Microorganism [4]: -
Inhibition Zone of Test Microorganism [5]: -
Inhibition Zone of Test Microorganism [6]: -
GI50 [7, 14]: > 100 µM
GI50 ([8]; K562, K-562, 72 h): 32.3 µM
antiproliferative activity in words ([8]; K-562): selective antiproliferative inhibition effect
GI50 [9, 15]: > 100 µM
GI50 [10]: > 100 µM
CC50 at 72 h ([11]; HeLa cells (DSM ACC 57)): > 100 µM
antimicrobial activity over the panel in words [12]: most active

O=C1CC(c2ccccc2O)Oc2cc3c(c(O)c21)OCO3 (stereo not drawn) [Compound 4, 5,2′-Dihydroxy-6,7-methylenedioxyflavanone]
GI50 [7, 14]: 16 µM
GI50 ([8]; K562, K-562, 72 h): 48.7 µM
GI50 [9, 15]: 81 µM
GI50 [10]: 73.3 µM
CC50 at 72 h ([11]; HeLa cells (DSM ACC 57)): > 100 µM

CC[C@H](CC[C@@H](C)[C@H]1CC[C@H]2[C@@H]3CC=C4C[C@@H](O)CC[C@]4(C)[C@H]3CC[C@]12C)C(C)C [Compound 12, β-Sitosterol]
GI50 ([7]; Homo sapiens, THP-1, 72 h, read-out: Antiproliferative Effect, GI50 (CI 95%)): > 100 µM
GI50 ([8]; K562, 72 h): > 100 µM
GI50 ([9]; Homo sapiens, A549, 72 h, read-out: Antiproliferative Effect, GI50 (CI 95%)): > 100 µM
GI50 [10]: > 100 µM
CC50 at 72 h [11]: > 100 µM
antiproliferative / cytotoxic effect in words [13]: neither an antiproliferative effect nor a cytotoxicity

COc1cccc2c1C(=O)c1c(O)c3c(c(O)c1C2=O)C[C@@](O)(C(=O)CO)C[C@@H]3O[C@H]1C[C@H](N)[C@H](O)[C@H](C)O1 [Doxorubicin, reference compound]
GI50 ([8]; K562, K-562, 72 h): 0.13 µM
GI50 [10]: 0.13 µM
CC50 at 72 h ([11]; HeLa cells (DSM ACC 57)): 0.48 µM

COc1cc(O)c2c(c1)OC(c1cccc(O)c1OC)C(O)C2=O (stereo not drawn) [Compound 7, 3,5,3′-Trihydroxy-7,2′-dimethoxyflavanone]
GI50 [7, 14]: > 100 µM
GI50 ([8]; K562, K-562, 72 h): 97.6 µM
GI50 [9, 15]: > 100 µM
GI50 [10]: > 100 µM
CC50 at 72 h ([11]; HeLa cells (DSM ACC 57)): > 100 µM
antiproliferative / cytotoxic effect in words [13]: reduced or no inhibitory effects

COc1c2c(cc3c1C1CC(O3)c3ccccc3O1)OCO2 (stereo not drawn) [Compound 2, 5-Methoxy-6,7-methylenedioxy-4-O-2′-cycloflavan]
zone of inhibition at 1000 µg/mL [1]: 12 mm
antibacterial activity in words ([1]; Bacillus subtilis, agar diffusion, compared to ciprofloxacin): demonstrated activity
zone of inhibition at 1000 µg/mL [2]: 14 mm
antibacterial activity in words [2]: demonstrated activity
antibacterial activity in words [3]: demonstrated activity
zone of inhibition at 1000 µg/mL [3]: 17 mm
Inhibition Zone of Test Microorganism [4]: -
Inhibition Zone of Test Microorganism [5]: -
Inhibition Zone of Test Microorganism [6]: -
GI50 [7, 14]: 29.2 µM
GI50 ([8]; K562, K-562, 72 h): 31.5 µM
GI50 [9, 15]: > 100 µM
GI50 [10]: 35.2 µM
CC50 at 72 h ([11]; HeLa cells (DSM ACC 57)): 42.6 µM

COc1cc(O)c2c(c1)OC(c1cccc(O)c1O)CC2=O (stereo not drawn) [Compound 6, 5,2′,3′-Trihydroxy-7-methoxyflavanone]
GI50 [7, 14]: 16.9 µM
GI50 ([8]; K562, K-562, 72 h): 56 µM
GI50 [9, 15]: 70.9 µM
GI50 [10]: 68.2 µM
CC50 at 72 h ([11]; HeLa cells (DSM ACC 57)): > 100 µM

Cc1ccc(NC(=O)c2ccc(CN3CCN(C)CC3)cc2)cc1Nc1nccc(-c2cccnc2)n1 [Imatinib, imatinib, reference compound]
GI50 ([8]; K562, K-562, 72 h): 0.2 µM
GI50 [10]: 22.1 µM
CC50 at 72 h ([11]; HeLa cells (DSM ACC 57)): 78.6 µM

COc1ccccc1-c1coc2cc(O)c(OC)c(O)c2c1=O [Compound 8, 5,7-Dihydroxy-6,2′-dimethoxyisoflavone]
GI50 [7, 14]: > 100 µM
GI50 ([8]; K562, K-562, 72 h): > 100 µM
GI50 [9, 15]: > 100 µM
GI50 [10]: > 100 µM
CC50 at 72 h ([11]; HeLa cells (DSM ACC 57)): > 100 µM
antiproliferative / cytotoxic effect in words [13]: reduced or no inhibitory effects

COc1cc2occ(-c3ccccc3OC3OC(CO)C(O)C(O)C3O)c(=O)c2c(O)c1OC [Compound 9, 5-Hydroxy-6,7-dimethoxyisoflavone-2′-O-β-D-glucopyranoside]
zone of inhibition at 1000 µg/mL [2]: 13 mm
antibacterial activity in words [2]: selective activity
Inhibition Zone of Test Microorganism [4]: -
Inhibition Zone of Test Microorganism [5]: -
Inhibition Zone of Test Microorganism [6]: -
GI50 [7, 14]: > 100 µM
GI50 ([8]; K562, K-562, 72 h): > 100 µM
GI50 [9, 15]: > 100 µM
GI50 [10]: > 100 µM
CC50 at 72 h ([11]; HeLa cells (DSM ACC 57)): > 100 µM
antiproliferative / cytotoxic effect in words [13]: completely not effective

O=C1C=CCCC(O)C2CC(=O)c3c(O)cc(cc3O2)OC2OC(CO1)C(O)C(O)C2O (stereo not drawn) [Compound 1, Moniristenulide]
zone of inhibition at 1000 µg/mL [2]: 13 mm
antibacterial activity in words [2]: selective activity
Inhibition Zone of Test Microorganism [4]: -
Inhibition Zone of Test Microorganism [5]: -
Inhibition Zone of Test Microorganism [6]: -
GI50 [7, 14]: > 100 µM
GI50 ([8]; K562, K-562, 72 h): > 100 µM
GI50 [9, 15]: > 100 µM
GI50 [10]: > 100 µM
CC50 at 72 h ([11]; HeLa cells (DSM ACC 57)): > 100 µM
